Measured values from patent US20260234099A1, “Endocannabinoid ligands and related analogs” (Northeastern University, priority 2023, published 2026).
Like-named read-outs stand apart in the source and are kept apart here.

Legend:
[1] = biological target: CB1 receptor (rCB1) (Rattus norvegicus, UniProt P20272); assay: cAMP assay (inhibition of FSK stimulated cAMP), CB1; type: cell-based; details: for functional profile at CB1 (cAMP): full or partial agonist; for Emax: percentage of maximum response of standard full agonist (e.g., CP-55,940)
Method: Further functional characterization of some of the disclosed compounds tested initially for “binding affinity” or for GTPγ-S binding was performed by using the cyclic adenosine monophosphate (cAMP) assay. […] A detailed description of the methods used to test compounds using the cAMP assay is given in Yingpeng, et al. J. Med. Chem. (2018) 61, 8639-8657 the content of which is hereby incorporated by reference. The EC50 values (potency of a test compound) of the functional assays may or may not be accompanied by the E(max) value in tables 1-5 (efficacy of the test compound). E(max)/efficacy is the maximum GTP stimulation or cAMP inhibition levels and is presented as the percentage of maximum response evoked by a standard CB1/CB2 full agonist (e.g., CP-55,940) for reference see the paper cited above.

[2] = biological target: CB2 receptor (hCB2) (Homo sapiens, UniProt P34972); assay: cAMP assay (inhibition of FSK stimulated cAMP), CB2; type: cell-based; details: class symbols
Method: FIG. 2A is a graph providing data of the % inhibition of FSK stimulated cAMP for compound 6.1.1 for hCB2.
Further functional characterization of some of the disclosed compounds tested initially for “binding affinity” or for GTPγ-S binding was performed by using the cyclic adenosine monophosphate (cAMP) assay. Key compounds initially characterized functionally using the GTPγ-S assay were also doubly tested using the cAMP assay to unambiguously confirm their functional profiles. The functional potency of the compounds tested using the cyclase assay is also represented by the EC50 (cAMP) value and similarly the lower the EC50 (cAMP) value the higher the potency of the compound for the receptor. A detailed description of the methods used to test compounds using the cAMP assay is given in Yingpeng, et al. J. Med. Chem. (2018) 61, 8639-8657 the content of which is hereby incorporated by reference. The EC50 values (potency of a test compound) of the functional assays may or may not be accompanied by the E(max) value in tables 1-5 (efficacy of the test compound). E(max)/efficacy is the maximum GTP stimulation or cAMP inhibition levels and is presented as the percentage of maximum response evoked by a standard CB1/CB2 full agonist (e.g., CP-55,940) for reference see the paper cited above. If a test compound has an efficacy close to 100% of the standard full agonist, then the test compound is also classified as full agonist.

[3] = biological target: CB2 receptor (Homo sapiens, UniProt P34972); assay: CB2 receptor binding affinity (Ki); parameters: CB2 receptor Ki; CB2 receptor Ki (PMSF); other: with PMSF; details: read-out: CB2 receptor Ki
Method: (§1) Some disclosed compounds were tested for CB1 and CB2 receptor binding affinity (Tables 1, 2, 3, 4, 5). As used herein “binding affinity” is represented by the Ki value. The Ki value is the affinity constant and describes the affinity of the compound for the receptor. […] A detailed description of the methods used to test “binding affinity” of compounds is given in Makriyannis, et al., US 2007/0135388 the content of which is hereby incorporated by reference.

[4] = biological target: CB1 receptor (Rattus norvegicus, UniProt P20272); assay: CB1 receptor binding affinity (Ki); details: for CB1 over CB2 preference: CB1 vs CB2, Tables 1 and 5; for binding affinity for CB1 receptor compared to endogenous AEA: vs AEA, Table 5
Method: as §1

[5] = with PMSF, read-out: CB1 Receptor Ki with PMSF
[6] = without PMSF, read-out: CB1 receptor affinity Ki

Sequence of CB1 receptor (rCB1) (P20272 whole entry): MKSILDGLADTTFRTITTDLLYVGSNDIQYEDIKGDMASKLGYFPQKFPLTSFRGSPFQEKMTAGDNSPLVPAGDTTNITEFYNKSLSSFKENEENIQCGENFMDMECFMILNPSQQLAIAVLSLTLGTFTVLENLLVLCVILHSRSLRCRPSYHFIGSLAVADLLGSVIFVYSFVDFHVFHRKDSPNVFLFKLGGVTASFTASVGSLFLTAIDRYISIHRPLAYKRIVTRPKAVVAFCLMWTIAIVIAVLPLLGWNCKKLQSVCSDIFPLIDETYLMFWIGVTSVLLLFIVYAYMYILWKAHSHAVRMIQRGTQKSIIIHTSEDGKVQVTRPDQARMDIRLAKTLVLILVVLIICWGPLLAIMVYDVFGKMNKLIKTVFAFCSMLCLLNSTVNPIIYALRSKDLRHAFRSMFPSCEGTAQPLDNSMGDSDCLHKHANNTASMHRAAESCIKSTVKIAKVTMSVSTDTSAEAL
Sequence of CB1 receptor (P20272 whole entry): as above
Sequence of CB2 receptor (hCB2) (P34972 whole entry): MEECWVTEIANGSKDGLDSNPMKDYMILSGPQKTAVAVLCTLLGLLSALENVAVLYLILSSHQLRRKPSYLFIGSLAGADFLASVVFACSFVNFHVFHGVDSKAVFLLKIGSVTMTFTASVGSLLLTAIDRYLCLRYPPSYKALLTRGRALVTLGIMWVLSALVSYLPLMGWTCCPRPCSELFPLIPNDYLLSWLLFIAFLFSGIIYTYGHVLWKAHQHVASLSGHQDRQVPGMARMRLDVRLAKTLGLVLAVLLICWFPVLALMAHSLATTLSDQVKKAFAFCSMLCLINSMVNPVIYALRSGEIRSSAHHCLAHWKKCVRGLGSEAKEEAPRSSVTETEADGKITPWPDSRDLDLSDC

C[C@H](/C=C\C/C=C\C/C=C\C1CC1C(=O)OC(CO)CO)/C=C\CCCCC(F)(F)F (single isomer, unassigned) [Compound 5.11.4] gave an EC50 ([1]; class symbols) of 10 to 200 nM and an EC50 [2] of 10 to 200 nM.

Compound C[C@H](/C=C\C/C=C\C/C=C\C1CC1C(=O)OC(CO)CO)/C=C\CCCCC(F)(F)F (single isomer, unassigned) [Compound 5.11.8] has an EC50 ([1]; class symbols) of 0.01 to 10 nM and an EC50 [2] of 10 to 200 nM.

For C[C@H](/C=C\C/C=C\C/C=C\CCCC(=O)N[C@H](C)CO)/C=C\CCCCCOC1CCCCO1 (stereo partly shown) [Compound 4.1.3], the Ki [3] was over 1000 nM, the Ki [4, 5] was over 1000 nM and the Ki [4, 6] was over 1000 nM.

For C[C@H](/C=C\C/C=C\C/C=C\CCCC(=O)N[C@H](C)CO)/C=C\CCCCCBr [Compound 4.1.4, (S,5Z,8Z,11Z,14Z)-20-Bromo-N—((R)-1-hydroxypropan-2-yl)-13-methylicosa-5,8,11,14-tetraenamide], the Ki [3] was 0.01 to 10 nM, the Ki [4, 5] was 0.01 to 10 nM and the Ki [4, 6] was 0.01 to 10 nM.

For C[C@H](/C=C\C/C=C\C/C=C\CCCC(=O)N[C@H](C)CO)/C=C\CCCCCO[N+](=O)[O-] [Compound 4.1.5b, (S,6Z,9Z,12Z,15Z)-20-(((R)-1-Hydroxypropan-2-yl)amino)-8-methyl-20-oxoicosa-6,9,12,15-tetraen-1-yl Nitrate], the Ki [3] was 10 to 200 nM, the “CB1 over CB2 preference” value [4] was “bind to and stimulate preferentially the CB1 receptors” and the Ki [4, 5] was 0.01 to 10 nM. It also gave a Ki [4, 6] of 0.01 to 10 nM.

With CCCCC/C=C\C/C=C\C/C=C\C/C=C\C1CC1C(=O)NCCO (stereo not shown) [Compound 4.2.2a, 2-((1Z,4Z,7Z,10Z)-Hexadeca-1,4,7,10-tetraen-1-yl)-N-(2-hydroxyethyl)cyclopropane-1-carboxamide] the Ki [3] was over 1000 nM and the Ki [4, 6] was over 1000 nM.

For CCCCC/C=C\C/C=C\C/C=C\C/C=C\C1CC(C(=O)NCCO)C1 (stereo not shown) [Compound 4.2.2c], the Ki [3] was 200 to 1000 nM and the Ki [4, 5] was 200 to 1000 nM.

CCCCC/C=C\C/C=C\C/C=C\C/C=C\C1(CC(=O)NCCO)CCC1 [Compound 4.2.2d] was tested, and the Ki [4, 5] was 200 to 1000 nM.

With CCCCC/C=C\C/C=C\C/C=C\C/C=C\C1CC[C@@H](C(=O)NCCO)C1 (stereo partly shown) [Compound 4.2.2e] the Ki [3] was 200 to 1000 nM and the Ki [4, 5] was 200 to 1000 nM.

In the case of CCCCC/C=C\C/C=C\C/C=C\C/C=C\C1CCC(C(=O)NCCO)CC1 (stereo not shown) [Compound 4.2.2f], the Ki [3] is reported as 200 to 1000 nM and the Ki [4, 5] is reported as 200 to 1000 nM.

CCCCC/C=C\C/C=C\C/C=C\Cc1ccccc1CCCC(=O)NCCO [Compound 4.3.4, N-(2-Hydroxyethyl)-4-(2-((2Z,5Z,8Z)-tetradeca-2,5,8-trien-1-yl)phenyl)butanamide] was tested, and the Ki [3] was 10 to 200 nM, the “binding affinity for CB1 receptor compared to endogenous AEA” value [4] was “substantially higher binding affinities” and the Ki [4, 5] was 10 to 200 nM. For the same compound, the Ki [4, 6] was 10 to 200 nM.

CCCCC/C=C\C/C=C\C/C=C\Cc1ccccc1CCCC(=O)N[C@H](C)CO [Compound 4.3.5, N—((R)-1-Hydroxypropan-2-yl)-4-(2-((2Z,5Z,8Z)-tetradeca-2,5,8-trien-1-yl)phenyl)butanamide] was tested, and the Ki [3] was 10 to 200 nM, the “CB1 over CB2 preference” value [4] was “bind to and stimulate preferentially the CB1 receptors” and the “binding affinity for CB1 receptor compared to endogenous AEA” value [4] was “substantially higher binding affinities”. It also gave a Ki [4, 5] of 10 to 200 nM and a Ki [4, 6] of 0.01 to 10 nM.

For CCCCC/C=C\[C@H](C)/C=C\C/C=C\Cc1ccccc1CCCC(=O)N[C@H](C)CO [Compound 4.5.3, N—((R)-1-hydroxypropan-2-yl)-4-(2-((S,2Z,5Z,8Z)-7-methyltetradeca-2,5,8-trien-1-yl)phenyl)butanamide], the “binding affinity for CB1 receptor compared to endogenous AEA” value [4] was “substantially higher binding affinities”, the Ki [4, 5] was 0.01 to 10 nM and the Ki [4, 6] was 0.01 to 10 nM.

C[C@H](/C=C\C/C=C\C/C=C\CCCC(=O)NC(CO)CO)/C=C\CCCCCO[N+](=O)[O-] [Compound 5.1.6b] was tested, and the EC50 ([1]; class symbols) was 0.01 to 10 nM and the EC50 [2] was 10 to 200 nM.

In the case of C[C@H](/C=C\C/C=C\C/C=C\CCCC(=O)NC(CO)CO)/C=C\CCCCCOC1CCCCO1 (stereo partly shown) [Compound 5.1.6c], the EC50 ([1]; class symbols) is reported as over 1000 nM and the EC50 [2] is reported as over 1000 nM.

CCCCC/C=C\C/C=C\C/C=C\C/C=C\C1CC1C(=O)OC(CO)CO (stereo not shown) [Compound 5.2.2a, 1,3-Dihydroxypropan-2-yl 2-((1Z,4Z,7Z,10Z)-hexadeca-1,4,7,10-tetraen-1-yl)cyclopropane-1-carboxylate] was tested, and the EC50 ([1]; class symbols) was 10 to 200 nM.

CCCCC/C=C\C/C=C\C/C=C\C/C=C\C1CC1C(=O)OC(CO)CO (stereo not shown) [Compound 5.2.2b] was tested, and the EC50 [2] was 10 to 200 nM.

For CCCCC/C=C\C/C=C\C/C=C\C/C=C\C1CC(C(=O)OC(CO)CO)C1 (stereo not shown) [Compound 5.2.2c], the EC50 ([1]; class symbols) was over 1000 nM and the EC50 [2] was over 1000 nM.

CCCCC/C=C\C/C=C\C/C=C\C/C=C\C1(CC(=O)OC(CO)CO)CCC1 [Compound 5.2.2d] gave an EC50 ([1]; class symbols) of 200 to 1000 nM and an EC50 [2] of over 1000 nM.

For CCCCC/C=C\C/C=C\C/C=C\C/C=C\C1CCC(C(=O)OC(CO)CO)CC1 (stereo not shown) [Compound 5.2.2f], the EC50 ([1]; class symbols) was over 1000 nM and the EC50 [2] was over 1000 nM.

CCCCC/C=C\[C@H](C)/C=C\C/C=C\C/C=C\CCCC(=O)OC(CO)CO [Compound 5.4.3c, 1,3-Dihydroxypropan-2-yl (S,5Z,8Z,11Z,14Z)-13-methylicosa-5,8,11,14-tetraenoate] was tested, and the “functional profile at CB1 (cAMP)” value [1] was “full agonist”, the EC50 ([1]; numeric) was 10.3 nM and the Emax [1] was 99%. The EC50 [2] was 0.01 to 10 nM.

CCCCC/C=C\[C@@H](C)/C=C\C/C=C\C/C=C\CCCC(=O)OC(CO)CO [Compound 5.4.3d, 1,3-Dihydroxypropan-2-yl (R,5Z,8Z,11Z,14Z)-13-methylicosa-5,8,11,14-tetraenoate] was tested, and the “functional profile at CB1 (cAMP)” value [1] was “full agonist”, the EC50 ([1]; numeric) was 4.1 nM and the Emax [1] was 95%. It also gave an EC50 [2] of 0.01 to 10 nM.

With C[C@H](/C=C\C/C=C\C/C=C\C1CC1C(=O)OC(CO)CO)/C=C\CCCCCO[N+](=O)[O-] (stereo partly drawn) [Compound 5.7.3b, 1,3-dihydroxypropan-2-yl-2-((S,1Z,4Z,7Z,10Z)-9-methyl-16-(nitrooxy)hexadeca-1,4,7,10-tetraen-1-yl)cyclopropane-1-carboxylate] the EC50 ([1]; class symbols) was 0.01 to 10 nM.

Compound N#CCCCCC/C=C\C/C=C\C/C=C\C/C=C\C1CC1C(=O)OC(CO)CO (stereo not shown) [Compound 5.8.3a, 1,3-Dihydroxypropan-2-yl-2-((1Z,4Z,7Z,10Z)-16-cyanohexadeca-1,4,7,10-tetraen-1-yl)cyclopropane-1-carboxylate] has an EC50 ([1]; class symbols) of 10 to 200 nM.

Work on O=C(OC(CO)CO)C1CC1/C=C\C/C=C\C/C=C\C/C=C\CCCCCO[N+](=O)[O-] (stereo not shown) [Compound 5.8.3b, 1,3-Dihydroxypropan-2-yl-2-((1Z,4Z,7Z,10Z)-16-(nitrooxy)hexadeca-1,4,7,10-tetraen-1-yl)cyclopropane-1-carboxylate] yielded an EC50 ([1]; class symbols) of 10 to 200 nM.

For CCCCC/C=C\[C@H](C)/C=C\C/C=C\Cc1ccccc1CCCC(=O)OC(CO)CO [Compound 5.9.3], the EC50 ([1]; class symbols) was over 1000 nM and the EC50 [2] was over 1000 nM.

C[C@H](/C=C\C/C=C\C/C=C\[C@@H]1C[C@H]1C(=O)OC(CO)CO)/C=C\CCCCC(F)(F)F [Compound 5.12.1] was tested, and the EC50 ([1]; class symbols) was 10 to 200 nM and the EC50 [2] was 10 to 200 nM.

In the case of C[C@H](/C=C\C/C=C\C/C=C\[C@H]1C[C@@H]1C(=O)OC(CO)CO)/C=C\CCCCC(F)(F)F [Compound 5.12.2], the EC50 ([1]; class symbols) is reported as over 1000 nM and the EC50 [2] is reported as 10 to 200 nM.

For C[C@H](/C=C\C/C=C\C/C=C\[C@H]1C[C@H]1C(=O)OC(CO)CO)/C=C\CCCCC(F)(F)F [Compound 5.12.3, 1,3-dihydroxypropan-2-yl (1R,2R)-2-((S,1Z,4Z,7Z,10Z)-16,16,16-trifluoro-9-methylhexadeca-1,4,7,10-tetraen-1-yl)cyclopropane-1-carboxylate], the EC50 ([1]; class symbols) was 0.01 to 10 nM and the EC50 [2] was 10 to 200 nM.

C[C@H](/C=C\C/C=C\C/C=C\[C@@H]1C[C@@H]1C(=O)OC(CO)CO)/C=C\CCCCC(F)(F)F [Compound 5.12.4, 1,3-dihydroxypropan-2-yl (1S,2S)-2-((S,1Z,4Z,7Z,10Z)-16,16,16-trifluoro-9-methylhexadeca-1,4,7,10-tetraen-1-yl)cyclopropane-1-carboxylate] showed an EC50 ([1]; class symbols) of 10 to 200 nM and an EC50 [2] of 10 to 200 nM.

CCCCC/C=C\[C@H](C)/C=C\C/C=C\C/C=C\CCCOC(=O)C(C)(CO)CO [Compound 6.2.2, (S,4Z,7Z,10Z,13Z)-12-Methylnonadeca-4,7,10,13-tetraen-1-yl-3-hydroxy-2(hydroxymethyl)-2-methylpropanoate] gave an EC50 ([1]; class symbols) of 10 to 200 nM and an EC50 [2] of 10 to 200 nM.
